Reference: patent US11161830B2, “4-pyridone compound or salt thereof, and pharmaceutical composition and formulation including same” (priority 2017, dated 2021)
Several values for one entry are separate records, joined by “and”; a condition that tells them apart may be missing. Identical values can stand only once.

Experiments:
HBV genotype C [1] = assay: Test Example 3-2: in vivo efficacy study in PXB mouse (chimeric mouse with human hepatocytes), first and second study; design: species or system hepatitis B virus; conditions: second study, orally 3 mg/kg twice a day for 14 days from day 35, individual mice, 3 mg/kg
Method: An in vivo efficacy study with a PXB mouse (a chimeric mouse with human hepatocytes) was carried out in PhenixBio Co., Ltd. 19-Week-or-more-old male mice having body weights of 10.5 g or more after the elapse of 13 weeks or more from the infection with HBV genotype C were allocated into the respective groups and used. The studies were carried out twice, and a 21-day administration withdrawal period was provided between the first study and the second study.
The first administration day in the first study was taken as day 0, and the compound of Example 6-5 was orally administered at 1 mg/kg, 3 mg/kg, 10 mg/kg, and 30 mg/kg twice a day, or 0.5% methylcellulose (vehicle) was orally administered once a day for 14 days. Before administration on day 0, day 3, Day 7, and day 10, and on day 14, the blood was collected from the orbital venous plexus under anesthesia with isoflurane.
The first administration day in the second study was taken as day 35, and the compounds of Examples 19-2 and 20-2 were each orally administered at 3 mg/kg twice a day, or 0.5% methylcellulose (vehicle) was orally administered once a day for 14 days. Before administration on day 35, day 38, day 42, and day 45, the blood was collected from the orbital venous plexus under anesthesia with isoflurane. On day 49, the blood was collected from the heart under anesthesia with isoflurane.
The serum was separated from the collected blood and purified with a QIAamp (registered trademark) DNA Blood Mini Kit (manufactured by QIAGEN). The amount of HBV-DNA in the obtained solution was absolutely quantified by a real-time PCR method. In addition, the amount of HBsAg in the serum was absolutely quantified by chemiluminescent enzyme immunoassay using Lumipulse (registered trademark) HBsAg-HQ (manufactured by Fujirebio Inc.).

HBV genotype C [2] = assay: Test Example 3-3: in vivo efficacy study in PXB mouse (chimeric mouse with human hepatocytes); design: species or system hepatitis B virus; conditions: individual mice
Method: An in vivo efficacy study with a PXB mouse (a chimeric mouse with human hepatocytes) was carried out in PhenixBio Co., Ltd. Male mice having body weights of 15 g or more after the elapse of 8 weeks from the infection with HBV genotype C were allocated into the respective groups and used.
The compounds of Example 20-2 was orally administered at 2 mg/kg, 6 mg/kg, and 20 mg/kg once a day, and at 1 mg/kg, 3 mg/kg, and 10 mg/kg twice a day, or 0.5% methylcellulose (vehicle) was orally administered once a day for 14 days. A first administration day was taken as day 0, and before administration on day 0, day 3, Day 7, and day 10, and on day 14, the blood was collected from the orbital venous plexus under anesthesia with isoflurane.
The serum was separated from the collected blood and purified with a QIAamp (registered trademark) DNA Blood Mini Kit (manufactured by QIAGEN). The amount of HBV-DNA in the obtained solution was absolutely quantified by a real-time PCR method. In addition, the amount of HBsAg in the serum was absolutely quantified by chemiluminescent enzyme immunoassay using Lumnipulse (registered trademark) HBsAg-HQ (manufactured by Fujirebio Inc.).

[3] = orally 1 mg/kg twice a day, Day 0 (before administration), 1 mg/kg
[4] = orally 1 mg/kg twice a day, Day 3, 1 mg/kg
[5] = orally 1 mg/kg twice a day, Day 7, 1 mg/kg
[6] = orally 1 mg/kg twice a day, Day 10, 1 mg/kg
[7] = orally 1 mg/kg twice a day, Day 14, 1 mg/kg
[8] = orally 2 mg/kg once a day, Day 0 (before administration), 2 mg/kg
[9] = orally 2 mg/kg once a day, Day 3, 2 mg/kg
[10] = orally 2 mg/kg once a day, Day 7, 2 mg/kg
[11] = orally 2 mg/kg once a day, Day 10, 2 mg/kg
[12] = orally 2 mg/kg once a day, Day 14, 2 mg/kg
[13] = orally 3 mg/kg twice a day, Day 0 (before administration), 3 mg/kg
[14] = orally 3 mg/kg twice a day, Day 3, 3 mg/kg
[15] = orally 3 mg/kg twice a day, Day 7, 3 mg/kg
[16] = orally 3 mg/kg twice a day, Day 10, 3 mg/kg
[17] = orally 3 mg/kg twice a day, Day 14, 3 mg/kg
[18] = orally 6 mg/kg once a day, Day 0 (before administration), 6 mg/kg
[19] = orally 6 mg/kg once a day, Day 3, 6 mg/kg
[20] = orally 6 mg/kg once a day, Day 7, 6 mg/kg
[21] = orally 6 mg/kg once a day, Day 10, 6 mg/kg
[22] = orally 6 mg/kg once a day, Day 14, 6 mg/kg
[23] = orally 10 mg/kg twice a day, Day 0 (before administration), 10 mg/kg
[24] = orally 10 mg/kg twice a day, Day 3, 10 mg/kg
[25] = orally 10 mg/kg twice a day, Day 7, 10 mg/kg
[26] = orally 10 mg/kg twice a day, Day 10, 10 mg/kg
[27] = orally 10 mg/kg twice a day, Day 14, 10 mg/kg
[28] = orally 20 mg/kg once a day, Day 0 (before administration), 20 mg/kg
[29] = orally 20 mg/kg once a day, Day 3, 20 mg/kg
[30] = orally 20 mg/kg once a day, Day 7, 20 mg/kg
[31] = orally 20 mg/kg once a day, Day 10, 20 mg/kg
[32] = orally 20 mg/kg once a day, Day 14, 20 mg/kg

COC1CN(c2nc3ccc(-n4cc(C(=O)O)c(=O)cc4-c4ccc(N5CC[C@@H](OC)C5)c(F)c4)cc3s2)C1 [Example 20-2]
HBV-DNA in blood (HBV genotype C [1]; Day 35 (before administration)): 8.2E+08 copies/mL and 8.3E+08 copies/mL
HBsAg in serum (HBV genotype C [1]; Day 35 (before administration)): 2,556 IU/mL and 3,408 IU/mL
HBV-DNA in blood (HBV genotype C [1]; Day 38): 4.6E+08 copies/mL and 4.0E+08 copies/mL
HBsAg in serum (HBV genotype C [1]; Day 38): 948 IU/mL and 1,061 IU/mL
HBV-DNA in blood (HBV genotype C [1]; Day 42): 2.6E+08 copies/mL and 5.0E+08 copies/mL
HBsAg in serum (HBV genotype C [1]; Day 42): 832 IU/mL and 1,478 IU/mL
HBV-DNA in blood (HBV genotype C [1]; Day 45): 3.5E+08 copies/mL and 3.1E+08 copies/mL
HBsAg in serum (HBV genotype C [1]; Day 45): 859 IU/mL and 1,185 IU/mL
HBV-DNA in blood (HBV genotype C [1]; Day 49): 2.3E+08 copies/mL and 2.7E+08 copies/mL
HBsAg in serum (HBV genotype C [1]; Day 49): 1,444 IU/mL and 924 IU/mL
HBV-DNA in blood (HBV genotype C [2]; [3]): 2.8E+08 copies/mL and 1.4E+08 copies/mL
HBsAg in serum (HBV genotype C [2]; [3]): 3,352 IU/mL and 2,640 IU/mL and 4,436 IU/mL
HBV-DNA in blood (HBV genotype C [2]; [4]): 1.7E+08 copies/mL and 1.2E+08 copies/mL and 3.7E+08 copies/mL
HBsAg in serum (HBV genotype C [2]; [4]): 3,056 IU/mL and 2,193 IU/mL and 4,655 IU/mL
HBV-DNA in blood (HBV genotype C [2]; [5]): 1.4E+08 copies/mL
HBsAg in serum (HBV genotype C [2]; [5]): 3,033 IU/mL and 1,691 IU/mL and 3,774 IU/mL
HBV-DNA in blood (HBV genotype C [2]; [6]): 1.4E+08 copies/mL and 3.7E+08 copies/mL
HBsAg in serum (HBV genotype C [2]; [6]): 2,356 IU/mL and 1,694 IU/mL and 3,775 IU/mL
HBV-DNA in blood (HBV genotype C [2]; [7]): 2.5E+08 copies/mL and 1.3E+08 copies/mL and 6.9E+08 copies/mL
HBsAg in serum (HBV genotype C [2]; [7]): 2,833 IU/mL and 2,077 IU/mL and 4,276 IU/mL
HBV-DNA in blood (HBV genotype C [2]; [8]): 4.5E+08 copies/mL and 4.7E+08 copies/mL and 4.4E+08 copies/mL
HBsAg in serum (HBV genotype C [2]; [8]): 2,534 IU/mL and 2,701 IU/mL and 3,776 IU/mL
HBV-DNA in blood (HBV genotype C [2]; [9]): 3.3E+08 copies/mL
HBsAg in serum (HBV genotype C [2]; [9]): 2,393 IU/mL and 1,918 IU/mL and 3,502 IU/mL
HBV-DNA in blood (HBV genotype C [2]; [10]): 1.7E+08 copies/mL and 5.3E+08 copies/mL
HBsAg in serum (HBV genotype C [2]; [10]): 1,612 IU/mL and 2,211 IU/mL and 3,236 IU/mL
HBV-DNA in blood (HBV genotype C [2]; [11]): 4.2E+08 copies/mL and 4.3E+08 copies/mL and 3.9E+08 copies/mL
HBsAg in serum (HBV genotype C [2]; [11]): 1,946 IU/mL and 1,609 IU/mL and 3,623 IU/mL
HBV-DNA in blood (HBV genotype C [2]; [12]): 4.3E+08 copies/mL
HBsAg in serum (HBV genotype C [2]; [12]): 1,526 IU/mL and 2,321 IU/mL and 3,366 IU/mL
HBV-DNA in blood (HBV genotype C [2]; [13]): 3.4E+08 copies/mL and 3.8E+08 copies/mL
HBsAg in serum (HBV genotype C [2]; [13]): 2,582 IU/mL and 2,395 IU/mL and 3,879 IU/mL
HBV-DNA in blood (HBV genotype C [2]; [14]): 2.2E+08 copies/mL and 1.8E+08 copies/mL and 2.1E+08 copies/mL
HBsAg in serum (HBV genotype C [2]; [14]): 1,034 IU/mL and 1,048 IU/mL and 1,801 IU/mL
HBV-DNA in blood (HBV genotype C [2]; [15]): 2.8E+08 copies/mL and 1.2E+08 copies/mL and 1.8E+08 copies/mL
HBsAg in serum (HBV genotype C [2]; [15]): 1,275 IU/mL and 785 IU/mL and 1,286 IU/mL
HBV-DNA in blood (HBV genotype C [2]; [16]): 4.3E+08 copies/mL
HBsAg in serum (HBV genotype C [2]; [16]): 1,017 IU/mL and 900 IU/mL and 1,379 IU/mL
HBV-DNA in blood (HBV genotype C [2]; [17]): 3.7E+08 copies/mL and 3.4E+08 copies/mL and 3.6E+08 copies/mL
HBsAg in serum (HBV genotype C [2]; [17]): 1,051 IU/mL and 910 IU/mL and 1,375 IU/mL
HBV-DNA in blood (HBV genotype C [2]; [18]): 6.7E+08 copies/mL and 1.6E+08 copies/mL and 4.3E+08 copies/mL
HBsAg in serum (HBV genotype C [2]; [18]): 3,883 IU/mL and 1,905 IU/mL and 3,703 IU/mL
HBV-DNA in blood (HBV genotype C [2]; [19]): 3.8E+08 copies/mL and 2.0E+08 copies/mL and 1.7E+08 copies/mL
HBsAg in serum (HBV genotype C [2]; [19]): 3,331 IU/mL and 1,529 IU/mL and 2,004 IU/mL
HBV-DNA in blood (HBV genotype C [2]; [20]): 1.5E+08 copies/mL and 3.3E+08 copies/mL
HBsAg in serum (HBV genotype C [2]; [20]): 3,453 IU/mL and 1,321 IU/mL and 2,025 IU/mL
HBV-DNA in blood (HBV genotype C [2]; [21]): 3.8E+08 copies/mL and 2.2E+08 copies/mL and 1.5E+08 copies/mL
HBsAg in serum (HBV genotype C [2]; [21]): 2,920 IU/mL and 1,342 IU/mL and 1,100 IU/mL
HBV-DNA in blood (HBV genotype C [2]; [22]): 2.2E+08 copies/mL and 1.5E+08 copies/mL and 7.7E+08 copies/mL
HBsAg in serum (HBV genotype C [2]; [22]): 2,569 IU/mL and 1,312 IU/mL and 1,879 IU/mL
HBV-DNA in blood (HBV genotype C [2]; [23]): 4.2E+08 copies/mL and 3.8E+08 copies/mL
HBsAg in serum (HBV genotype C [2]; [23]): 3,678 IU/mL and 2,545 IU/mL and 3,727 IU/mL
HBV-DNA in blood (HBV genotype C [2]; [24]): 1.7E+08 copies/mL and 2.5E+08 copies/mL
HBsAg in serum (HBV genotype C [2]; [24]): 994 IU/mL and 735 IU/mL and 901 IU/mL
HBV-DNA in blood (HBV genotype C [2]; [25]): 2.1E+08 copies/mL and 1.6E+08 copies/mL and 1.1E+08 copies/mL
HBsAg in serum (HBV genotype C [2]; [25]): 707 IU/mL and 547 IU/mL and 708 IU/mL
HBV-DNA in blood (HBV genotype C [2]; [26]): 1.5E+08 copies/mL and 1.7E+08 copies/mL
HBsAg in serum (HBV genotype C [2]; [26]): 861 IU/mL and 593 IU/mL and 676 IU/mL
HBV-DNA in blood (HBV genotype C [2]; [27]): 2.0E+08 copies/mL
HBsAg in serum (HBV genotype C [2]; [27]): 931 IU/mL and 620 IU/mL and 738 IU/mL
HBV-DNA in blood (HBV genotype C [2]; [28]): 2.8E+08 copies/mL
HBsAg in serum (HBV genotype C [2]; [28]): 3,225 IU/mL and 3,886 IU/mL and 2,106 IU/mL
HBV-DNA in blood (HBV genotype C [2]; [29]): 2.1E+08 copies/mL and 2.0E+08 copies/mL and 9.7E+07 copies/mL
HBsAg in serum (HBV genotype C [2]; [29]): 1,239 IU/mL and 1,019 IU/mL and 517 IU/mL
HBV-DNA in blood (HBV genotype C [2]; [30]): 1.6E+08 copies/mL and 1.4E+08 copies/mL and 8.2E+07 copies/mL
HBsAg in serum (HBV genotype C [2]; [30]): 1,003 IU/mL and 877 IU/mL and 385 IU/mL
HBV-DNA in blood (HBV genotype C [2]; [31]): 3.3E+08 copies/mL and 2.5E+08 copies/mL and 1.5E+08 copies/mL
HBsAg in serum (HBV genotype C [2]; [31]): 1,200 IU/mL and 1,104 IU/mL and 493 IU/mL
HBV-DNA in blood (HBV genotype C [2]; [32]): 2.1E+08 copies/mL and 2.9E+08 copies/mL and 1.6E+08 copies/mL
HBsAg in serum (HBV genotype C [2]; [32]): 1,037 IU/mL and 1,159 IU/mL and 497 IU/mL
